In patent US7846945B2, “Piperdine-based inhibitors of sodium glucose co-transporter 2 and methods of their use” (Lexicon Pharmaceuticals, Inc., priority 2007, dated 2010):

Biological target: T1, Human sodium/glucose co-transporter type 2 (SGLT2) (Homo sapiens, UniProt P31639)
T1 construct: HA; expressed in transfected cells
T1 sequence (P31639 1-672): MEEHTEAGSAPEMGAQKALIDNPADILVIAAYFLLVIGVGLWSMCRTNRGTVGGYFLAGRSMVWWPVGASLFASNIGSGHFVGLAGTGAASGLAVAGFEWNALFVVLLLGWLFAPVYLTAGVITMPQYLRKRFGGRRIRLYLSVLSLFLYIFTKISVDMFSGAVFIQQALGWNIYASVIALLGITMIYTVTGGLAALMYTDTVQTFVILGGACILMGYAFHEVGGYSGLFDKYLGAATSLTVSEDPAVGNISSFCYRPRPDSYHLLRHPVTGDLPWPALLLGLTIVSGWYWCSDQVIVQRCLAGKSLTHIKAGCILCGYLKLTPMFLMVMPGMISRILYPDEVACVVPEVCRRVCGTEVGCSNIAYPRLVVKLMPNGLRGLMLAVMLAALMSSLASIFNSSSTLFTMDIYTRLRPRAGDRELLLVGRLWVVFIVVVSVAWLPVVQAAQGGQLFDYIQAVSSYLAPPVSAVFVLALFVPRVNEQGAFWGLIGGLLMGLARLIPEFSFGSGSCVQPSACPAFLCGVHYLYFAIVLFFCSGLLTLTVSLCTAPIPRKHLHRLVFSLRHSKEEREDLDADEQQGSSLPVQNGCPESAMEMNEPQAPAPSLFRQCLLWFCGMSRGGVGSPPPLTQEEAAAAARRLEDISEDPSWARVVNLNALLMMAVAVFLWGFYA
Assay: In vitro human SGLT2 inhibition assay (14C-AMG uptake)
Assay type: cell-based
Conditions: HEK293 cells expressing human HA-SGLT2; potent = SGLT2 IC50 of less than about 500 nM; read-out: SGLT2 IC50 (potent SGLT2 inhibitor mark)
Method: HEK293 cells were transfected with the human HA-SGLT2-pIRESpuro2 vector and the bulk stable cell line was selected in presence of 0.5 μg/ml of puromycin. Human HA-SGLT2 cells were maintained in DMEM media containing 10% FBS, 1% GPS and 0.5 μg/ml of puromycin.
The HEK293 cells expressing the human HA-SGLT2 were seeded in 384 well plates (30,000 cells/well) in DMEM media containing 10% FBS, 1% GPS and 0.5 μg/ml of puromycin, then incubated overnight at 37 C, 5% CO2. Cells were then washed with uptake buffer (140 mM NaCl, 2 mM KCl, 1 mM CaCl2, 1 mM MgCl2, 10 mM HEPES, 5 mM Tris, 1 mg/ml bovine serum albumin (BSA), pH 7.3). Twenty microliters of uptake buffer with or without testing compounds were added to the cells. Then, 20 microliters of uptake buffer containing ^14C-AMG (100 nCi) were added to the cells. The cell plates were incubated at 37° C., 5% CO2 for 1-2 hours. After washing the cells with uptake buffer, scintillation fluid was added (40 microliters/well) and ^14C-AMG uptake was measured by counting radioactivity using a scintillation coulter (TopCoulter NXT; Packard Instruments).
The IC50 of a compound with regard to a given target is determined by fitting the relevant data, using the Levenburg Marquardt algorithm, to the equation: y=A+((B−A)/(1+((C/x)^D))) wherein A is the minimum y value; B is the maximum y value; C is the IC50; and D is the slope.

Row | SMILES | IC50
1 | CCOc1ccc(Cc2cc([C@H]3[C@H](O)[C@@H](O)[C@H](O)CN3C(C)=O)ccc2Cl)cc1 [1-{(2S,3S,4S,5R)-2-[4-Chloro-3-(4-ethoxy-benzyl)-phenyl]-3,4,5-trihydroxy-piperidin-1-yl}-ethanone] | < 500 nM
2 | CCOc1ccc(Cc2cc([C@@H]3O[C@H](SCC(N)=O)[C@@H](O)[C@H](O)[C@H]3O)ccc2Cl)cc1 [2-{(2R,3S,4R,5R,6S)-6-[4-Chloro-3-(4-ethoxy-benzyl)-phenyl]-3,4,5-trihydroxy-tetrahydro-pyran-2-ylsulfanyl}-acetamide] | < 500 nM
3 | CCOc1ccc(Cc2cc([C@H]3[C@H](O)[C@@H](O)[C@H](O)CN3CC(N)=O)ccc2Cl)cc1 [2-{(2S,3S,4S,5R)-2-[4-Chloro-3-(4-ethoxy-benzyl)-phenyl]-3,4,5-trihydroxy-piperidin-1-yl}-acetamide] | < 500 nM
4 | CCOc1ccc(-c2cccc([C@@H]3OC(OC)[C@@H](O)[C@H](O)[C@H]3O)c2)cc1 (stereo partly drawn) [(2S,3R,4R,5S)-2-(4′-Ethoxy-biphenyl-3-yl)-6-methoxy-tetrahydro-pyran-3,4,5-triol] | < 500 nM
5 | CCOc1ccc(Cc2cc([C@@H]3OC(OC)[C@@H](O)[C@H](O)[C@H]3O)ccc2C)cc1 (stereo partly drawn) [(2S,3R,4R,5S)-2-[3-(4-Ethoxy-benzyl)-4-methyl-phenyl]-6-methoxy-tetrahydro-pyran-3,4,5-triol] | < 500 nM
6 | CCOc1ccc(Cc2cccc([C@@H]3OC(OC)[C@@H](O)[C@H](O)[C@H]3O)c2)cc1 (stereo partly drawn) [(2S,3R,4R,5S)-2-[3-(4-Ethoxy-benzyl)-phenyl]-6-methoxy-tetrahydro-pyran-3,4,5-triol] | < 500 nM
7 | CCOc1ccc(Cc2cc([C@@H]3OC(OCC(F)(F)F)[C@@H](O)[C@H](O)[C@H]3O)ccc2Cl)cc1 (stereo partly drawn) [(2S,3R,4R,5S)-2-[4-Chloro-3-(4-ethoxy-benzyl)-phenyl]-6-(2,2,2-trifluoro-ethoxy)-tetrahydro-pyran-3,4,5-triol] | < 500 nM
8 | CCOc1ccc(Cc2cc([C@@H]3OC(OCC(O)CO)[C@@H](O)[C@H](O)[C@H]3O)ccc2Cl)cc1 (stereo partly drawn) [(2S,3R,4R,5S)-2-[4-Chloro-3-(4-ethoxy-benzyl)-phenyl]-6-(2,3-dihydroxy-propoxy)-tetrahydro-pyran-3,4,5-triol] | < 500 nM
9 | CCOc1ccc(Cc2cc([C@@H]3OC(OCCN(C)C)[C@@H](O)[C@H](O)[C@H]3O)ccc2Cl)cc1 (stereo partly drawn) [(2S,3R,4R,5S)-2-[4-Chloro-3-(4-ethoxy-benzyl)-phenyl]-6-(2-dimethylamino-ethoxy)-tetrahydro-pyran-3,4,5-triol] | < 500 nM
10 | CCOc1ccc(Cc2cc([C@@H]3OC(OCCS)[C@@H](O)[C@H](O)[C@H]3O)ccc2Cl)cc1 (stereo partly drawn) [(2S,3R,4R,5S)-2-[4-Chloro-3-(4-ethoxy-benzyl)-phenyl]-6-(2-mercapto-ethoxy)-tetrahydro-pyran-3,4,5-triol] | < 500 nM
11 | CCOc1ccc(Cc2cc([C@@H]3OC(OCCOC)[C@@H](O)[C@H](O)[C@H]3O)ccc2Cl)cc1 (stereo partly drawn) [(2S,3R,4R,5S)-2-[4-Chloro-3-(4-ethoxy-benzyl)-phenyl]-6-(2-methoxy-ethoxy)-tetrahydro-pyran-3,4,5-triol] | < 500 nM
12 | CCOc1ccc(Cc2cc([C@@H]3OC(OCCCO)[C@@H](O)[C@H](O)[C@H]3O)ccc2Cl)cc1 (stereo partly drawn) [(2S,3R,4R,5S)-2-[4-Chloro-3-(4-ethoxy-benzyl)-phenyl]-6-(3-hydroxy-propoxy)-tetrahydro-pyran-3,4,5-triol] | < 500 nM
13 | CCCSC1O[C@@H](c2ccc(Cl)c(Cc3ccc(OCC)cc3)c2)[C@H](O)[C@@H](O)[C@@H]1O (stereo partly drawn) [(2S,3R,4R,5S)-2-[4-Chloro-3-(4-ethoxy-benzyl)-phenyl]-6-propylsulfanyl-tetrahydro-pyran-3,4,5-triol] | < 500 nM
14 | COc1ccc(Sc2cc([C@@H]3OC(OC)[C@@H](O)[C@H](O)[C@H]3O)ccc2Cl)cc1 (stereo partly drawn) [(2S,3R,4R,5S)-2-[4-Chloro-3-(4-methoxy-phenylsulfanyl)-phenyl]-6-methoxy-tetrahydro-pyran-3,4,5-triol] | < 500 nM
15 | COC1O[C@@H](c2ccc(Cl)c(Cc3ccc(OCCOCc4ccccc4)cc3)c2)[C@H](O)[C@@H](O)[C@@H]1O (stereo partly drawn) [(2S,3R,4R,5S)-2-{3-[4-(2-Benzyloxy-ethoxy)-benzyl]-4-chloro-phenyl}-6-methoxy-tetrahydro-pyran-3,4,5-triol] | < 500 nM
16 | COC1O[C@@H](c2cccc(Cc3ccc(OCCO)cc3)c2)[C@H](O)[C@@H](O)[C@@H]1O (stereo partly drawn) [(2S,3R,4R,5S)-2-{3-[4-(2-Hydroxy-ethoxy)-benzyl]-phenyl}-6-methoxy-tetrahydro-pyran-3,4,5-triol] | < 500 nM
17 | COC1O[C@@H](c2ccc(Cl)c(Cc3ccc(OC4CCN(C)CC4)cc3)c2)[C@H](O)[C@@H](O)[C@@H]1O (stereo partly drawn) [(2S,3R,4R,5S)-2-{4-Chloro-3-[4-(1-methyl-piperidin-4-yloxy)-benzyl]-phenyl}-6-methoxy-tetrahydro-pyran-3,4,5-triol] | < 500 nM
18 | COc1cc(Oc2ccc(Cc3cc([C@@H]4OC(OC)[C@@H](O)[C@H](O)[C@H]4O)ccc3Cl)cc2)nc(OC)n1 (stereo partly drawn) [(2S,3R,4R,5S)-2-{4-Chloro-3-[4-(2,6-dimethoxy-pyrimidin-4-yloxy)-benzyl]-phenyl}-6-methoxy-tetrahydro-pyran-3,4,5-triol] | < 500 nM
19 | COC1O[C@@H](c2ccc(Cl)c(Cc3ccc(OCCO)cc3)c2)[C@H](O)[C@@H](O)[C@@H]1O (stereo partly drawn) [(2S,3R,4R,5S)-2-{4-Chloro-3-[4-(2-hydroxy-ethoxy)-benzyl]-phenyl}-6-methoxy-tetrahydro-pyran-3,4,5-triol] | < 500 nM
20 | COCCOc1ccc(Cc2cc([C@@H]3OC(OC)[C@@H](O)[C@H](O)[C@H]3O)ccc2Cl)cc1 (stereo partly drawn) [(2S,3R,4R,5S)-2-{4-Chloro-3-[4-(2-methoxy-ethoxy)-benzyl]-phenyl}-6-methoxy-tetrahydro-pyran-3,4,5-triol] | < 500 nM
21 | COC1O[C@@H](c2ccc(Cl)c(Cc3ccc(OCCSC)cc3)c2)[C@H](O)[C@@H](O)[C@@H]1O (stereo partly drawn) [(2S,3R,4R,5S)-2-{4-Chloro-3-[4-(2-methylsulfanyl-ethoxy)-benzyl]-phenyl}-6-methoxy-tetrahydro-pyran-3,4,5-triol] | < 500 nM
22 | COC1O[C@@H](c2ccc(Cl)c(Cc3ccc(O[C@H]4CCN(C)C4)cc3)c2)[C@H](O)[C@@H](O)[C@@H]1O (stereo partly drawn) [(2S,3R,4R,5S)-2-{4-Chloro-3-[4-((S)-1-methyl-pyrrolidin-3-yloxy)-benzyl]-phenyl}-6-methoxy-tetrahydro-pyran-3,4,5-triol] | < 500 nM
23 | COC1O[C@@H](c2ccc(Cl)c(Cc3ccc(Oc4ccncc4)cc3)c2)[C@H](O)[C@@H](O)[C@@H]1O (stereo partly drawn) [(2S,3R,4R,5S)-2-{4-Chloro-3-[4-(pyridin-4-yloxy)-benzyl]-phenyl}-6-methoxy-tetrahydro-pyran-3,4,5-triol] | < 500 nM
24 | COC1O[C@@H](c2ccc(Cl)c(Cc3ccc(Oc4cncnc4)cc3)c2)[C@H](O)[C@@H](O)[C@@H]1O (stereo partly drawn) [(2S,3R,4R,5S)-2-{4-Chloro-3-[4-(pyrimidin-5-yloxy)-benzyl]-phenyl}-6-methoxy-tetrahydro-pyran-3,4,5-triol] | < 500 nM
25 | COC1O[C@@H](c2ccc(Cl)c(Cc3ccc(OC4CCOCC4)cc3)c2)[C@H](O)[C@@H](O)[C@@H]1O (stereo partly drawn) [(2S,3R,4R,5S)-2-{4-Chloro-3-[4-(tetrahydro-pyran-4-yloxy)-benzyl]-phenyl}-6-methoxy-tetrahydro-pyran-3,4,5-triol] | < 500 nM
26 | COC1O[C@@H](c2ccc(Cl)c(Cc3ccc(Oc4nccs4)cc3)c2)[C@H](O)[C@@H](O)[C@@H]1O (stereo partly drawn) [(2S,3R,4R,5S)-2-{4-Chloro-3-[4-(thiazol-2-yloxy)-benzyl]-phenyl}-6-methoxy-tetrahydro-pyran-3,4,5-triol] | < 500 nM
27 | CCOc1ccc(Cc2cc([C@@H]3O[C@H](SCC(F)(F)F)[C@@H](O)[C@H](O)[C@H]3O)ccc2Cl)cc1 [(2S,3R,4R,5S,6R)-2-[4-Chloro-3-(4-ethoxy-benzyl)-phenyl]-6-(2,2,2-trifluoro-ethylsulfanyl)-tetrahydro-pyran-3,4,5-triol] | < 500 nM
